The results in this text go back to patent publication US10820591B2, “Substituted sulfonyl amides for controlling animal pests” (Bayer Aktiengesellschaft, priority 2016, dated 2020).

This experiment concerns Meloidogyne incognita. Kind of experiment: Meloidogyne incognita test (sand, lettuce, gall formation). It counts as in vivo. Conditions: Meloidogyne incognita, 336 h, 20 ppm, after 14 days; read-out: nematicidal efficacy (formation of galls). On the procedure:
Meloidogyne incognita Test [table] To produce a suitable active compound preparation, 1 part by weight of active compound is mixed with the stated amount of solvent and the concentrate is diluted to the desired concentration with water. Vessels are filled with sand, active compound solution, an egg/larvae suspension of the southern root-knot nematode (Meloidogyne incognita) and lettuce seeds. The lettuce seeds germinate and the plants develop. The galls develop on the roots. After 14 days, the nematicidal efficacy in % is determined by the formation of galls. 100% means that no galls were found; 0% means that the number of galls on the treated plants corresponds to the untreated control.

Turning to `COc1ccc(Cl)c(S(=O)(=O)NC(=O)c2cn(-c3ccc(Cl)cc3)cn2)c1` [I-190], the pest or weed control at 20 ppm was found to be 100%.
`O=C(NS(=O)(=O)c1cc(Cl)ccc1Cl)c1nc(Cl)n(CCC(F)(F)F)c1Cl` [I-123]: the pest or weed control at 20 ppm was 90%.
Regarding `O=C(NS(=O)(=O)c1ccccc1)c1cn(-c2cc(Br)cc(C(F)(F)F)c2)cn1` [I-276], the pest or weed control at 20 ppm was found to be 70%.
The result for `Cc1ccc(-n2cnc(C(=O)NS(=O)(=O)c3ccccc3)c2)cc1` [I-209] reads 90%; that for `CCc1nc(C(=O)NS(=O)(=O)c2cc(OC)ccc2Cl)cn1-c1cc(Cl)cc(C(F)(F)F)c1` [I-407], 100%; that for `COc1ccc(-n2cnc(C(=O)NS(=O)(=O)c3ccccc3)c2)cc1` [I-211], 100%.
The result for `O=C(NS(=O)(=O)c1ccccc1)c1cn(-c2cc(Br)cc(Br)c2)cn1` [I-273] reads 90%.
For `O=C(NS(=O)(=O)c1c(Cl)cccc1Cl)c1cn(-c2ccc(Cl)cc2Cl)cn1` [I-206], the pest or weed control at 20 ppm was 100%.
With `O=C(NS(=O)(=O)c1cccc(Cl)c1)c1ncn(CCC(F)(F)F)c1Cl` [I-020], the pest or weed control at 20 ppm stood at 90%.
To `COc1ccc(Cl)c(S(=O)(=O)NC(=O)c2cn(-c3cc(F)cc(F)c3)c(C(C)C)n2)c1` [I-395] belongs 90%; to `O=C(NS(=O)(=O)c1cccc(Cl)c1)c1ncn(C2CC2C(F)(F)F)c1Cl` (stereo not shown) [I-061], 90%; to `COc1cccc(S(=O)(=O)NC(=O)c2ncn(-c3ccccc3C(F)(F)F)c2Cl)c1` [I-429], 90%.
For `COc1ccc(Cl)c(S(=O)(=O)NC(=O)c2cn(-c3cc(C)cc(C)c3)cn2)c1` [I-288], the pest or weed control at 20 ppm turned out to be 100%.
To `O=C(NS(=O)(=O)c1c(Cl)cccc1Cl)c1nc(Cl)n(C2CC2C(F)(F)F)c1Cl` (stereo not shown) [I-461] belongs 100%; to `COc1ccc(Cl)c(S(=O)(=O)NC(=O)c2cn(Cc3c(F)cccc3F)cn2)c1` [I-002], 90%; to `O=C(NS(=O)(=O)c1c(F)cccc1F)c1cn(-c2cccc(Cl)c2Cl)cn1` [I-248], 100%.
On to `COc1ccc(Cl)c(S(=O)(=O)NC(=O)c2cc(-c3cc(Cl)cc(Cl)c3)n(CC(F)(F)F)n2)c1` [I-448], for which the pest or weed control at 20 ppm is 100%.
As for `O=C(NS(=O)(=O)c1ccc(Cl)s1)c1ncn(CCC(F)(F)F)c1Cl` [I-094], the pest or weed control at 20 ppm came to 90%.
`COc1ccc(F)c(S(=O)(=O)NC(=O)c2cn(-c3c(F)cccc3F)cn2)c1` [I-360]: the pest or weed control at 20 ppm was 90%.
`O=C(NS(=O)(=O)c1ccccc1Cl)c1cn(-c2cccc(C(F)(F)F)c2)cn1` [I-176]: the pest or weed control at 20 ppm worked out at 100%.
To `O=C(NS(=O)(=O)c1cc(C(F)(F)F)ccc1Cl)c1ncn(C2CC2C(F)(F)F)c1Cl` (stereo not shown) [I-105] belongs 90%; to `Cc1nc(C(=O)NS(=O)(=O)C(C)C)cn1-c1c(F)cccc1F` [I-005], 100%; to `Cc1nc(C(=O)NS(=O)(=O)c2c(Cl)cccc2Cl)cn1Cc1cccc(Cl)c1` [I-169], 90%.
As for `COc1ccc(Cl)c(S(=O)(=O)NC(=O)c2cn(-c3cccc(Cl)c3)cn2)c1` [I-179], the pest or weed control at 20 ppm was determined as 90%.
In the case of `COc1ccc(Cl)c(S(=O)(=O)NC(=O)c2cn(-c3ccccc3OC(F)(F)F)cn2)c1` [I-227], the pest or weed control at 20 ppm is 100%.
`O=C(NS(=O)(=O)c1ccccc1)c1ncn(-c2cccc(C(F)(F)F)c2)c1Cl` [I-434]: the pest or weed control at 20 ppm is 100%.
Regarding `Cc1nc(C(=O)NS(=O)(=O)c2ccccc2Cl)cn1-c1cc(Cl)cc(C(F)(F)F)c1` [I-326], the pest or weed control at 20 ppm was found to be 100%.
With `O=C(NS(=O)(=O)c1cccc(Cl)c1)c1ncn(-c2cccc(C(F)(F)F)c2)c1Cl` [I-432], the pest or weed control at 20 ppm was 90%.
To `O=C(NS(=O)(=O)c1cc(C(F)(F)F)ccc1Cl)c1nc(Cl)n(CCC(F)(F)F)c1Cl` [I-458] belongs 100%.
As to `COc1ccc(S(=O)(=O)NC(=O)c2ncn(-c3cccc(C(F)(F)F)c3)c2Cl)cc1` [I-437], the pest or weed control at 20 ppm amounted to 90%.
With `O=C(NS(=O)(=O)c1ccccc1Cl)c1cn(Cc2cc(Cl)cc(Cl)c2)cn1` [I-165], the pest or weed control at 20 ppm came out at 100%.
To `Cc1nc(C(=O)NS(=O)(=O)c2cc(Cl)ccc2Cl)cn1-c1cc(F)cc(F)c1` [I-329] belongs 100%.
With `COc1ccc(Cl)c(S(=O)(=O)NC(=O)c2cc(-c3c(F)cccc3F)n(C)n2)c1` [I-144], the pest or weed control at 20 ppm turned out to be 90%.
With `Cc1nc(C(=O)NS(=O)(=O)c2c(Cl)cccc2Cl)cn1-c1cccc(Cl)c1Cl` [I-267], the pest or weed control at 20 ppm was determined as 100%.
As to `CCc1nc(C(=O)NS(=O)(=O)c2cc(OC)ccc2Cl)cn1-c1cc(F)cc(Cl)c1` [I-406], the pest or weed control at 20 ppm amounted to 100%.
The result for `CCSc1cccc(Cl)c1S(=O)(=O)NC(=O)c1cn(-c2cc(F)cc(Cl)c2)c(C)n1` [I-383] reads 100%.
With `CC(C)CCn1cnc(C(=O)NS(=O)(=O)c2ccc(Cl)cc2)c1Cl` [I-046], the pest or weed control at 20 ppm was determined as 100%.
With `COc1ccc(Cl)c(S(=O)(=O)NC(=O)c2cn(-c3cc(F)cc(C(F)(F)F)c3)c(C(C)C)n2)c1` [I-405], the pest or weed control at 20 ppm is 100%.
To `O=C(NS(=O)(=O)c1c(Cl)cccc1Cl)c1ncn(CC(F)(F)F)c1Cl` [I-016] belongs 90%.
Regarding `O=C(NS(=O)(=O)c1ccc(OC(F)(F)F)cc1)c1ncn(CCC(F)(F)F)c1Cl` [I-033], the pest or weed control at 20 ppm is 90%.
Take `O=C(NS(=O)(=O)c1ccccc1Cl)c1cn(-c2cc(Cl)c(Cl)c(Cl)c2)cn1` [I-302]: the pest or weed control at 20 ppm stood at 100%.
Regarding `O=C(NS(=O)(=O)c1ccccc1Cl)c1ncn(CCC(F)(F)F)c1I` [I-008], the pest or weed control at 20 ppm worked out at 100%.
For the compound `Cc1nc(C(=O)NS(=O)(=O)c2ccccc2Cl)cn1-c1cc(F)cc(F)c1` [I-331], the pest or weed control at 20 ppm turned out to be 100%.
Regarding `Cc1ccccc1S(=O)(=O)NC(=O)c1nc(C)n(-c2cc(Cl)cc(Cl)c2)c1Cl` [I-112], the pest or weed control at 20 ppm came out at 100%.
On to `O=C(NS(=O)(=O)c1ccccc1)c1cn(Cc2cc(Cl)cc(Cl)c2)cn1` [I-167], for which the pest or weed control at 20 ppm was found to be 90%.
As to `Cc1ccccc1S(=O)(=O)NC(=O)c1cn(CCC(F)(F)F)cn1` [I-017], the pest or weed control at 20 ppm was determined as 90%.
Take `O=C(NS(=O)(=O)c1c(Cl)cccc1Cl)c1cn(-c2cc(Cl)ccc2Cl)cn1` [I-205]: the pest or weed control at 20 ppm was 100%.
In the case of `Cc1nc(C(=O)NS(=O)(=O)c2ccccc2Cl)cn1-c1cc(F)cc(C(F)(F)F)c1` [I-334], the pest or weed control at 20 ppm is 100%.
Consider `COc1ccc(Cl)cc1S(=O)(=O)NC(=O)c1nc(Cl)n(CCC(F)(F)F)c1Cl` [I-454], for which the pest or weed control at 20 ppm worked out at 100%.
`COc1ccc(Cl)c(S(=O)(=O)NC(=O)c2cn(-c3ccc(Cl)cc3)c(C)n2)c1` [I-259]: the pest or weed control at 20 ppm worked out at 100%.
On to `Cc1nc(C(=O)NS(=O)(=O)c2c(F)cccc2Cl)cn1-c1cc(F)cc(F)c1` [I-397], for which the pest or weed control at 20 ppm stood at 70%.
For the compound `O=C(NS(=O)(=O)c1cc(Cl)ccc1Cl)c1cn(-c2ccccc2F)cn1` [I-232], the pest or weed control at 20 ppm is 100%.
In the case of `O=C(NS(=O)(=O)c1ccc(Cl)cc1)c1ncn(-c2ccccc2C(F)(F)F)c1Cl` [I-427], the pest or weed control at 20 ppm came out at 100%.
For the compound `CC(=O)Nc1ccc(S(=O)(=O)NC(=O)c2ncn(CCC(F)(F)F)c2Cl)cc1` [I-091], the pest or weed control at 20 ppm turned out to be 90%.
Take `CSc1ccc(S(=O)(=O)NC(=O)c2ncn(CCC(F)(F)F)c2Cl)cc1` [I-089]: the pest or weed control at 20 ppm was 100%.
As for `O=C(NS(=O)(=O)c1c(Cl)cccc1Cl)c1cn(-c2cccc(Cl)c2)cn1` [I-175], the pest or weed control at 20 ppm came to 100%.
For the compound `O=C(NS(=O)(=O)c1ccccc1Cl)c1cn(-c2cc(Cl)c(Br)c(Cl)c2)cn1` [I-311], the pest or weed control at 20 ppm turned out to be 90%.
Regarding `O=C(NS(=O)(=O)c1c(F)cccc1F)c1cn(-c2cc(Cl)cc(Cl)c2)cn1` [I-222], the pest or weed control at 20 ppm worked out at 100%.
On to `COc1ccc(Cl)c(S(=O)(=O)NC(=O)c2cn(-c3cc(F)cc(Cl)c3)c(C(C)C)n2)c1` [I-408], for which the pest or weed control at 20 ppm amounted to 100%.
As for `O=C(NS(=O)(=O)c1ccccc1Cl)c1cn(-c2ccc(F)cc2F)cn1` [I-215], the pest or weed control at 20 ppm turned out to be 100%.
For `O=C(NS(=O)(=O)c1ccc(Cl)cc1)c1ncn(-c2cccc(C(F)(F)F)c2)c1Cl` [I-431], the pest or weed control at 20 ppm turned out to be 90%.
Turning to `O=C(NS(=O)(=O)c1c(Cl)cccc1Cl)c1cn(Cc2cccc(C(F)(F)F)c2)cn1` [I-161], the pest or weed control at 20 ppm was 100%.
In the case of `Cc1nc(C(=O)NS(=O)(=O)c2ccccc2Cl)cn1-c1ccccc1` [I-252], the pest or weed control at 20 ppm was determined as 100%.
For the compound `COc1cccc(S(=O)(=O)NC(=O)c2ncn(CCCCl)c2Cl)c1` [I-053], the pest or weed control at 20 ppm is 90%.
For `COc1ccc(S(=O)(=O)NC(=O)c2ncn(CCOC(F)(F)F)c2Cl)cc1` [I-055], the pest or weed control at 20 ppm is 90%.
To `Cc1nc(C(=O)NS(=O)(=O)c2ccccc2Cl)cn1-c1ccc(Cl)cc1` [I-257] belongs 90%.
As for `CC(=O)Oc1ccc(S(=O)(=O)NC(=O)c2ncn(CCC(F)(F)F)c2Cl)cc1` [I-031], the pest or weed control at 20 ppm is 90%.
As to `COc1ccc(Cl)c(S(=O)(=O)NC(=O)c2cn(-c3cccc(C(F)(F)F)c3)cn2)c1` [I-178], the pest or weed control at 20 ppm is 100%.
To `O=C(NS(=O)(=O)c1ccccc1Cl)c1cn(-c2c(Cl)cccc2Cl)cn1` [I-244] belongs 100%; to `Cc1nc(C(=O)NS(=O)(=O)c2c(F)cccc2Cl)cn1-c1cc(Cl)cc(C(F)(F)F)c1` [I-399], 90%.
